In patent publication US11781119B2, “Variant forms of urate oxidase and use thereof” (Horizon Therapeutics USA, Inc., priority 2005, dated 2023):

Tests used:
Format in all cases: biochemical
Conditions in all cases: uric acid; sodium borate buffer, pH 9.2
[1] = test system: Pig-baboon chimera (PBC) uricase, recombinant, pig uricase codons 1-225 joined in-frame to codons 226-304 of baboon uricase
Excerpt: Pig-baboon chimera (PBC) uricase was constructed in order to gain higher expression, stability, and activity of the recombinant gene. […] The PBC uricase cDNA consists of the pig uricase codons 1-225 joined in-frame to codons 226-304 of baboon uricase.

[2] = target: T1, Pig uricase, native, commercial preparation (Sigma) (Sus scrofa, UniProt P16164)
T1 sequence (P16164 1-304): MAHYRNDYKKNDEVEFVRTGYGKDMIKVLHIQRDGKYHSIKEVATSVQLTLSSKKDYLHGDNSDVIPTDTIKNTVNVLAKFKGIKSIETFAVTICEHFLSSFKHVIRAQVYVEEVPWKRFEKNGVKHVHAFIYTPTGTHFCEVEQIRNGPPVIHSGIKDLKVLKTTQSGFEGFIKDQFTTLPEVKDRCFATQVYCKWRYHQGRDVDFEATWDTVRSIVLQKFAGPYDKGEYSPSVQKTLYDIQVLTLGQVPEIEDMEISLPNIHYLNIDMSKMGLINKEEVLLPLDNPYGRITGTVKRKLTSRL
Procedure: (§1) Activity of uricase was measured by a UV method. […] Uricase potency is expressed in activity units per mg protein (U/mg).
(§2) The absorbance change with time (ΔA292 per minute) was derived from the linear portion of the curve.
(§3) The specific activity (potency) of uricase was calculated by dividing the activity in U/ml with protein concentration in mg/ml.

[3] = target: T2, Aspergillus flavus uricase, native, commercial preparation (Merck) (Aspergillus flavus, UniProt Q00511)
T2 sequence (Q00511 1-302): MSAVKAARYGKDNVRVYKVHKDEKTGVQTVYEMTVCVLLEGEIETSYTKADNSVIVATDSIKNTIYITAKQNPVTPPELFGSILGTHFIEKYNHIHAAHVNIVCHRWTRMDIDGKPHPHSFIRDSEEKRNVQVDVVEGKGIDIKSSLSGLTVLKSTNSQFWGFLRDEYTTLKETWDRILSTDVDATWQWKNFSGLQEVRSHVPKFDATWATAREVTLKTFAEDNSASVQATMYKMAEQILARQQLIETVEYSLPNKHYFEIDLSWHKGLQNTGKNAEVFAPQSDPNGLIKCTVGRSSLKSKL
Procedure: as §1, §2, §3

[4] = test system: Pig-baboon chimera (PBC) uricase variant PBC-ΔNC, recombinant, N-terminal six residues and C-terminal tri-peptide removed, SEQ ID NO. 12
Procedure: as §1, §2, §3

O=c1[nH]c(=O)c2[nH]c(=O)[nH]c2[nH]1 [Uric Acid, uric acid]
Km [1]: 4.87 µM
Km [2]: 5.85 µM
Km [3]: 23.5 µM
Km [4]: 4.3 µM
